From the supplement of paper PMC10733146

Experiments:
Test in all cases: viability relative to DMSO control (fraction); higher = less drug effect (more viable cells)
Conditions in all cases: 48 h
Selinexor = compound: O=C(/C=C\n1cnc(-c2cc(C(F)(F)F)cc(C(F)(F)F)c2)n1)NNc1cnccn1 [Selinexor]
In short: (§1)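 Viability is given as CellTiter-Glo luminescence relative to the median of 16 inner DMSO wells. Fresh or cryopreserved primary mononuclear tumour cells from blood, bone marrow (both Ficoll-isolated) or processed lymph node were plated at 4 × 10^4 cells per well in 384-well plates against five pre-plated compound concentrations, one well each. Incubation lasted 48 h at 37 °C and 5% CO2 in RPMI-1640 with penicillin/streptomycin, L-glutamine and human serum.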

Thalidomide = compound: O=C1CCC(N2C(=O)c3ccccc3C2=O)C(=O)N1 [Thalidomide]
In short: as §1

Tofacitinib = compound: C[C@@H]1CCN(C(=O)CC#N)C[C@@H]1N(C)c1ncnc2[nH]ccc12 [Tofacitinib]
In short: as §1

SGC 0946 = compound: CC(C)N(CCCNC(=O)Nc1ccc(C(C)(C)C)cc1)C[C@H]1O[C@@H](n2cc(Br)c3c(N)ncnc32)[C@H](O)[C@@H]1O [SGC 0946]
In short: as §1

EPZ-6438 = compound: CCN(c1cc(-c2ccc(CN3CCOCC3)cc2)cc(C(=O)NCc2c(C)cc(C)[nH]c2=O)c1C)C1CCOCC1 [EPZ-6438]
In short: as §1

Etoposide = compound: COc1cc([C@@H]2c3cc4c(cc3[C@@H](O[C@@H]3O[C@@H]5CO[C@@H](C)O[C@H]5[C@H](O)[C@H]3O)[C@H]3COC(=O)[C@H]23)OCO4)cc(OC)c1O [Etoposide]
In short: as §1

Duvelisib = compound: C[C@H](Nc1ncnc2nc[nH]c12)c1cc2cccc(Cl)c2c(=O)n1-c1ccccc1 [Duvelisib]
In short: as §1

[1] = compound: O=C(Nc1ccc2[nH]nc(-c3ccncc3)c2c1)[C@@H]1CCN(CC(=O)N2CCN(c3ccc(-c4ncccn4)cc3)CC2)C1
In short: as §1

CPI-169 = compound: CCS(=O)(=O)N1CCC([C@@H](C)n2c(C)c(C(=O)NCc3c(OC)cc(C)[nH]c3=O)c3ccccc32)CC1 [CPI-169]
In short: as §1

Navitoclax = compound: CC1(C)CCC(c2ccc(Cl)cc2)=C(CN2CCN(c3ccc(C(=O)NS(=O)(=O)c4ccc(N[C@H](CCN5CCOCC5)CSc5ccccc5)c(S(=O)(=O)C(F)(F)F)c4)cc3)CC2)C1 [Navitoclax]
In short: as §1

[2] = compound: CCc1ccc(/C=C2/SC(=S)NC2=O)cc1
In short: as §1

Palbociclib = compound: CC(=O)c1c(C)c2cnc(Nc3ccc(N4CCNCC4)cn3)nc2n(C2CCCC2)c1=O [Palbociclib]
In short: as §1

Venetoclax = compound: CC1(C)CCC(CN2CCN(c3ccc(C(=O)NS(=O)(=O)c4ccc(NCC5CCOCC5)c([N+](=O)[O-])c4)c(Oc4cnc5[nH]ccc5c4)c3)CC2)=C(c2ccc(Cl)cc2)C1 [Venetoclax]
In short: as §1

## primary AML patient cells (S055)
Selinexor; 0.008 µM
  viability: 0.92
Selinexor; 0.04 µM
  viability: 0.861
Selinexor; 0.2 µM
  viability: 0.833
Selinexor; 1 µM
  viability: 0.575
Selinexor; 5 µM
  viability: 0.535
Thalidomide; 0.032 µM
  viability: 0.916
Thalidomide; 0.16 µM
  viability: 0.94
Thalidomide; 0.8 µM
  viability: 0.894
Thalidomide; 4 µM
  viability: 0.931
Thalidomide; 20 µM
  viability: 0.876
Tofacitinib; 0.024 µM
  viability: 0.979
Tofacitinib; 0.12 µM
  viability: 0.964
Tofacitinib; 0.6 µM
  viability: 0.913
Tofacitinib; 3 µM
  viability: 0.949
Tofacitinib; 15 µM
  viability: 0.946
SGC 0946; 0.024 µM
  viability: 0.987
SGC 0946; 0.12 µM
  viability: 1
SGC 0946; 0.6 µM
  viability: 1.02
SGC 0946; 3 µM
  viability: 0.986
SGC 0946; 15 µM
  viability: 0.836
EPZ-6438; 0.024 µM
  viability: 1.01
EPZ-6438; 0.12 µM
  viability: 1.04
EPZ-6438; 0.6 µM
  viability: 0.976
EPZ-6438; 3 µM
  viability: 0.97
EPZ-6438; 15 µM
  viability: 0.917
Etoposide; 0.032 µM
  viability: 1.03
Etoposide; 0.16 µM
  viability: 1
Etoposide; 0.8 µM
  viability: 0.989
Etoposide; 4 µM
  viability: 1.03
Etoposide; 20 µM
  viability: 0.937
Duvelisib; 0.0016 µM
  viability: 0.937
Duvelisib; 0.008 µM
  viability: 0.954
Duvelisib; 0.04 µM
  viability: 0.893
Duvelisib; 0.2 µM
  viability: 0.862
Duvelisib; 1 µM
  viability: 0.77
[1]; 0.008 µM
  viability: 0.929
[1]; 0.04 µM
  viability: 0.819
[1]; 0.2 µM
  viability: 0.652
[1]; 1 µM
  viability: 0.52
[1]; 5 µM
  viability: 0.498
CPI-169; 0.024 µM
  viability: 0.982
CPI-169; 0.12 µM
  viability: 0.989
CPI-169; 0.6 µM
  viability: 1.07
CPI-169; 3 µM
  viability: 1.03
CPI-169; 15 µM
  viability: 1

## primary DLBCL patient cells (S049)
Selinexor; 0.008 µM
  viability: 0.54
Selinexor; 0.04 µM
  viability: 0.486
Selinexor; 0.2 µM
  viability: 0.499
Selinexor; 1 µM
  viability: 0.669
Selinexor; 5 µM
  viability: 0.586
Thalidomide; 0.032 µM
  viability: 0.902
Thalidomide; 0.16 µM
  viability: 0.864
Thalidomide; 0.8 µM
  viability: 0.918
Thalidomide; 4 µM
  viability: 0.968
Thalidomide; 20 µM
  viability: 1.03
Navitoclax; 0.0032 µM
  viability: 1
Navitoclax; 0.016 µM
  viability: 0.834
Navitoclax; 0.08 µM
  viability: 0.375
Navitoclax; 0.4 µM
  viability: 0.0676
Navitoclax; 2 µM
  viability: 0.0439
Tofacitinib; 0.024 µM
  viability: 0.811
Tofacitinib; 0.12 µM
  viability: 0.775
Tofacitinib; 0.6 µM
  viability: 0.926
Tofacitinib; 3 µM
  viability: 1.01
Tofacitinib; 15 µM
  viability: 1.32
SGC 0946; 0.024 µM
  viability: 0.919
SGC 0946; 0.12 µM
  viability: 1.05
SGC 0946; 0.6 µM
  viability: 0.926
SGC 0946; 3 µM
  viability: 0.719
SGC 0946; 15 µM
  viability: 0.183
EPZ-6438; 0.024 µM
  viability: 1.08
EPZ-6438; 0.12 µM
  viability: 1.08
EPZ-6438; 0.6 µM
  viability: 1.03
EPZ-6438; 3 µM
  viability: 1.05
EPZ-6438; 15 µM
  viability: 0.811
Etoposide; 0.032 µM
  viability: 0.907
Etoposide; 0.16 µM
  viability: 1.01
Etoposide; 0.8 µM
  viability: 0.962
Etoposide; 4 µM
  viability: 0.882
Etoposide; 20 µM
  viability: 0.548
Duvelisib; 0.0016 µM
  viability: 0.988
Duvelisib; 0.008 µM
  viability: 0.969
Duvelisib; 0.04 µM
  viability: 0.92
Duvelisib; 0.2 µM
  viability: 0.986
Duvelisib; 1 µM
  viability: 0.81
[1]; 0.008 µM
  viability: 0.611
[1]; 0.04 µM
  viability: 0.53
[1]; 0.2 µM
  viability: 0.396
[1]; 1 µM
  viability: 0.304
[1]; 5 µM
  viability: 0.245
[2]; 0.024 µM
  viability: 0.744
[2]; 0.12 µM
  viability: 0.798
[2]; 0.6 µM
  viability: 0.902
[2]; 3 µM
  viability: 0.873
[2]; 15 µM
  viability: 0.737
Palbociclib; 0.024 µM
  viability: 0.999
Palbociclib; 0.12 µM
  viability: 0.968
Palbociclib; 0.6 µM
  viability: 0.88
Palbociclib; 3 µM
  viability: 0.496
Palbociclib; 15 µM
  viability: 0.0932
CPI-169; 0.024 µM
  viability: 1.03
CPI-169; 0.12 µM
  viability: 1.02
CPI-169; 0.6 µM
  viability: 1.05
CPI-169; 3 µM
  viability: 0.991
CPI-169; 15 µM
  viability: 0.97
Venetoclax; 0.00064 µM
  viability: 0.898
Venetoclax; 0.0032 µM
  viability: 0.593
Venetoclax; 0.016 µM
  viability: 0.149
Venetoclax; 0.08 µM
  viability: 0.0521
Venetoclax; 0.4 µM
  viability: 0.0447
